Reference: PMC7956481, “Carrier-Free Immobilization of α-Galactosidase as Nano-Biocatalysts for Synthesizing Prebiotic α-Galacto-Oligosaccharides” (Molecules, 2021)

Tested on: T1, α-galactosidase
T1 construct: gene aglA; native extracellular enzyme; filtered culture supernatant used as crude enzyme, not purified
Test: p-nitrophenol release at […] nm, Michaelis-Menten fit (GraphPad Prism […])
Type: biochemical, Aspergillus niger
Conditions: free enzyme (crude culture supernatant); 50 mM acetate buffer pH 5.5; 37 °C; 10 min; 0.3 to 2.2 mM substrate

O=[N+]([O-])c1ccc(O[C@H]2O[C@H](CO)[C@H](O)[C@H](O)[C@H]2O)cc1 [p-Nitrophenyl α-D-galactopyranoside]
Km: 300 ± 20 µM
